Results published in patent US5085739A, “Separation of the propyl alcohols from water by azeotropic or extractive distillation” (priority 1991, dated 1992).
Counter-ions that a name gives are not always drawn.

Experiments:
[1] = vapor-liquid equilibrium still, isopropanol-water azeotrope with agent; details: for Relative Volatility: isopropanol from water, agent in vapor-liquid equilibrium still, water as overhead
From the text: In every case, the starting material was the propanol-water azeotrope. The relative volatilities are listed for each of the agents.

[2] = vapor-liquid equilibrium still, n-propanol-water azeotrope with agent; details: for Relative Volatility: n-propanol from water; for liquid composition, n-propanol / liquid composition, water / vapor composition, n-propanol / vapor composition, water: butoxypropanol four hours, n-amyl acetate 14 hours
From the text: The data in Table 2, 3, 5, 6 and 7 were obtained in a vapor-liquid equilibrium still. In every case, the starting material was the propanol-water azeotrope. The relative volatilities are listed for each of the agents.

[3] = glass perforated plate rectification column, n-propanol from water; format: physicochemical
Method: A solution comprising 288 grams of n-propanol and 112 grams of water was placed in the stillpot of the perforated plate column. When refluxing began, an extractive agent comprising n-butyl acetate was pumped into the column at a rate of 15/min/ml. The temperature of the extractive agent as it entered the column was 85° C. After establishing the feed rate of the extractive agent, the heat input to the n-propanol-water in the stillpot was adjusted to give a total reflux rate of 40 ml/min. After two hours of operation, the overhead and bottoms samples of approximately two ml. were collected and analysed.
Two hundred grams of the n-propanol-water azeotrope and 85 grams of n-amyl formate as the azeotrope former were charged to the 7.3 theoretical plate column and refluxed at total reflux for four hours.

[4] = glass perforated plate rectification column (7.3 theoretical plates), isopropanol from water; format: physicochemical; details: for Relative Volatility: extractive mode, 2 hrs, 7.3 theoretical plates; for Weight % Isopropanol, Bottoms / Weight % Water, Bottoms / Weight % Isopropanol, Overhead / Weight % Water, Overhead: rectification column
Method: A solution comprising 175 grams of isopropanol and 25 grams of water was placed in the stillpot of a 7.3 theoretical plate perforated plate column. […] The temperature of the extractive agent as it entered the column was 75° C. After establishing the feed rate of the extractive agent, the heat input to the isopropanol-water in the stillpot was adjusted to give a total reflux rate of 40 ml/min.
After two hours of operation, the overhead and bottoms samples of approximately two ml. were collected and analysed by gas chromatography.

[5] = as above; format: physicochemical; details: azeotropic
[6] = extractive distn., water as overhead
[7] = extractive distn., * brings n-propanol out as overhead

In the case of `OCCCCCO` [1,5-Pentanediol], the “Relative Volatility” value [1] is reported as 1.22 and the “Relative Volatility” value [2, 6] is reported as 1.22.
For `OCCCCCCO` [1,6-Hexanediol], the “Relative Volatility” value ([3]; extractive mode, 2 hrs) was 1.11, the “Weight % Water, Bottoms” value ([3]; rectification column) was 23.6 Weight % and the “Weight % n-Propanol, Bottoms” value ([3]; rectification column) was 76.4 Weight %. For the same compound, the “Weight % Water, Overhead” value ([3]; rectification column, overhead) was 38.6 Weight %, the “Weight % n-Propanol, Overhead” value ([3]; rectification column, overhead) was 61.4 Weight % and the “Relative Volatility” value [2, 6] was 1.31.
For `CCCCO` [1-Butanol], the “Relative Volatility” value [4] was 1.20, the “Weight % Isopropanol, Bottoms” value [4] was 87.9 Weight % and the “Weight % Water, Bottoms” value [4] was 12.1 Weight %. The “Weight % Isopropanol, Overhead” value [4] was 65.3 Weight % and the “Weight % Water, Overhead” value [4] was 34.7 Weight %.
For `CCC(C)O` (centres unmarked) [2-Butanol], the “Relative Volatility” value [1] was 1.36.
In the case of `CCCCCC(C)=O` [2-Heptanone], the “Relative Volatility” value [1] is reported as 1.32 and the “Relative Volatility” value [2, 6] is reported as 1.88.
With `CCCCCCC(C)O` (centres unmarked) [2-Octanol] the “Relative Volatility” value [1] was 1.30.
In the case of `CCCC(C)=O` [2-Pentanone], the “Relative Volatility” value [1] is reported as 1.38.
With `CCCCC(=O)CC` [3-Heptanone] the “Relative Volatility” value ([2]; azeotropic distn.) was 4.3.
For `CC(C)CCO` [3-Methyl-1-butanol], the “Relative Volatility” value [1] was 1.54.
For `CC(=O)C(C)C` [3-Methyl-2-butanone], the “Relative Volatility” value [1] was 1.24.
With `CCCCCC(=O)CC` [3-Octanone] the “Relative Volatility” value [1] was 1.22.
With `CC(=O)CC(C)C` [4-Methyl-2-pentanone] the “Relative Volatility” value ([3]; extractive mode, 2 hrs) was 1.45, the “Relative Volatility” value [1] was 1.36 and the “Relative Volatility” value [4] was 1.45. The “Weight % Isopropanol, Bottoms” value [4] was 82.3 Weight %, the “Weight % Water, Bottoms” value [4] was 17.7 Weight % and the “Weight % Isopropanol, Overhead” value [4] was 23.2 Weight %. For the same compound, the “Weight % Water, Overhead” value [4] was 76.8 Weight % and the “Relative Volatility” value ([2]; azeotropic distn.) was 1.3.
For `CCCCCOC=O` [Amyl Formate], the “Relative Volatility” value ([3]; azeotropic mode, 4 hrs) was 1.23, the “Weight % Water, Bottoms” value ([3]; rectification column) was 7.3 Weight % and the “Weight % n-Propanol, Bottoms” value ([3]; rectification column) was 25.7 Weight %. For the same compound, the “Weight % Agent, Bottoms” value ([3]; rectification column, azeotropic) was 67.0 Weight %, the “Weight % Agent, Bottoms” value ([3]; rectification column, azeotropic, listed as n-amyl formate) was 67 Weight % and the “Weight % Water, Overhead” value ([3]; rectification column, overhead) was 40.3 Weight %. The “Weight % n-Propanol, Overhead” value ([3]; rectification column, overhead) was 29.9 Weight % and the “Weight % Agent, Overhead” value ([3]; rectification column, overhead, azeotropic) was 29.8 Weight %.
With `COc1ccccc1` [Anisole] the “Relative Volatility” value [1] was 1.54 and the “Relative Volatility” value [2, 6] was 2.0.
With `N#Cc1ccccc1` [Benzonitrile] the “Relative Volatility” value ([2]; azeotropic distn.) was 1.5.
In the case of `CCCCOC(=O)c1ccccc1` [Butyl benzoate], the “Relative Volatility” value [1] is reported as 1.36.
In the case of `CCCCOC(=O)CCC` [Butyl butyrate], the “Relative Volatility” value [1] is reported as 1.39.
For `OC1CCCCCCCCCCC1` [Cyclododecanol], the “Relative Volatility” value [2, 6] was 1.43.
For `CCOCCOCCOC(C)=O` [Diethylene glycol ethyl ether acetate], the “Relative Volatility” value [2, 6] was 1.3.
With `OCCOCCO` [Diethylene glycol] the “Relative Volatility” value [1] was 1.80.
For `CCCC(=O)OCC` [Ethyl butyrate], the “Relative Volatility” value [1] was 1.46.
In the case of `O=C1OCCO1` [Ethylene carbonate], the “Relative Volatility” value [2, 7] is reported as 1.3.
With `CCOCCOC(C)=O` [Ethylene glycol ethyl ether acetate] the “Relative Volatility” value [2, 6] was 1.37.
In the case of `COCCO` [Ethylene glycol methyl ether], the “Relative Volatility” value [1] is reported as 1.60.
In the case of `OCCO` [Ethylene glycol], the “Relative Volatility” value [2, 7] is reported as 1.7.
For `CCCCCCOC(C)=O` [Hexyl acetate], the “Relative Volatility” value [1] was 1.31 and the “Relative Volatility” value ([2]; azeotropic distn.) was 3.4.
With `CCCCCCO` [Hexyl alcohol] the “Relative Volatility” value [1] was 1.32 and the “Relative Volatility” value [2, 6] was 1.44.
In the case of `CC(=O)OCC(C)C` [Isobutyl acetate], the “Weight % Water, Bottoms” value ([3]; rectification column) is reported as 58.8 Weight %, the “Weight % n-Propanol, Bottoms” value ([3]; rectification column) is reported as 41.2 Weight % and the “Weight % Water, Overhead” value ([3]; rectification column, overhead) is reported as 26.1 Weight %. For the same compound, the “Weight % n-Propanol, Overhead” value ([3]; rectification column, overhead) was 73.9 Weight %.
In the case of `CCCC(=O)OCC(C)C` [Isobutyl butyrate], the “Relative Volatility” value ([2]; azeotropic distn.) is reported as 1.2.
For `CC(C)COC(=O)C(C)C` [Isobutyl isobutyrate], the “Relative Volatility” value [1] was 1.61.
For `CC(C)CCCCCCCO` [Isodecyl alcohol], the “Relative Volatility” value [2, 6] was 1.30.
For `CC(=O)C=C(C)C` [Mesityl oxide], the “Relative Volatility” value [1] was 1.47 and the “Relative Volatility” value ([2]; azeotropic distn.) was 1.2.
For `COC(=O)c1ccccc1` [Methyl benzoate], the “Relative Volatility” value [1] was 1.50 and the “Relative Volatility” value [2, 6] was 1.70.
With `CC(=O)CCC(C)C` [Methyl isoamyl ketone] the “Relative Volatility” value [1] was 1.32.
In the case of `O=[N+]([O-])c1ccccc1` [Nitrobenzene], the “Relative Volatility” value [1] is reported as 1.32 and the “Relative Volatility” value [2, 6] is reported as 1.21.
In the case of `CCC(=O)c1ccccc1` [Propiophenone], the “Relative Volatility” value [1] is reported as 1.31.
With `CCCOCC(C)O` (centres unmarked) [Propoxypropanol] the “Relative Volatility” value ([3]; extractive mode, 2 hrs) was 1.21, the “Weight % Water, Bottoms” value ([3]; rectification column) was 30 Weight % and the “Weight % n-Propanol, Bottoms” value ([3]; rectification column) was 70 Weight %. The “Weight % Water, Overhead” value ([3]; rectification column, overhead) was 63.5 Weight % and the “Weight % n-Propanol, Overhead” value ([3]; rectification column, overhead) was 36.5 Weight %.
In the case of `CCCOC(=O)CCC` [Propyl butyrate], the “Relative Volatility” value [1] is reported as 1.72, the “liquid composition, isopropanol” value ([1]; refluxed six hours) is reported as 85.3% and the “liquid composition, water” value ([1]; refluxed six hours) is reported as 14.7%. The “vapor composition, isopropanol” value ([1]; refluxed six hours) was 77.1%, the “vapor composition, water” value ([1]; refluxed six hours) was 22.9% and the “Relative Volatility” value ([2]; azeotropic distn.) was 3.6.
With `CC(C)COCC(C)O` (centres unmarked) [Propylene glycol isobutyl ether] the “Relative Volatility” value [1] was 1.29.
With `CCCCCCCCCCCO` [Undecyl alcohol] the “Relative Volatility” value [2, 6] was 1.39.
For `C=COCCCC` [Vinyl n-butyl ether], the “Weight % Isopropanol, Bottoms” value [4] was 80.3 Weight %, the “Weight % Water, Bottoms” value [4] was 5.1 Weight % and the “Weight % Isopropanol, Overhead” value [4] was 28.5 Weight %. For the same compound, the “Weight % Water, Overhead” value [4] was 14.5 Weight %, the “Weight % Agent, Bottoms” value ([5]; bottoms) was 14.6 Weight % and the “Weight % Agent, Overhead” value ([5]; overhead) was 57.0 Weight %.
For `CC(O)c1ccccc1` (stereo not drawn) [alpha-Methyl benzyl alcohol], the “Relative Volatility” value [2, 6] was 1.48.
For `CCCCCOC(C)=O` [n-Amyl acetate], the “Relative Volatility” value [1] was 1.30, the “liquid composition, n-propanol” value [2] was 67.3% and the “liquid composition, water” value [2] was 32.7%. For the same compound, the “vapor composition, n-propanol” value [2] was 58%, the “vapor composition, water” value [2] was 42% and the “Relative Volatility” value ([2]; azeotropic distn.) was 1.5.
With `CCCCOC(C)=O` [n-Butyl acetate] the “Relative Volatility” value ([3]; extractive mode, 2 hrs, * n-propanol comes off as overhead) was 1.32, the “Weight % Water, Bottoms” value ([3]; rectification column) was 73.7 Weight % and the “Weight % n-Propanol, Bottoms” value ([3]; rectification column) was 26.3 Weight %. For the same compound, the “Weight % Water, Overhead” value ([3]; rectification column, overhead) was 27.7 Weight %, the “Weight % n-Propanol, Overhead” value ([3]; rectification column, overhead) was 72.3 Weight % and the “Relative Volatility” value [1] was 1.28. For the same compound, the “Relative Volatility” value [2, 7] was 1.7.
For `CCCCCCCCCCO` [n-Decanol], the “Relative Volatility” value [1] was 1.38.
For `CCCCCCOC=O` [n-Hexyl formate], the “Relative Volatility” value [1] was 1.52.
With Butoxypropanol the “Weight % Water, Bottoms” value ([3]; rectification column) was 15.9 Weight %, the “Weight % n-Propanol, Bottoms” value ([3]; rectification column) was 84.1 Weight % and the “Weight % Water, Overhead” value ([3]; rectification column, overhead) was 50.1 Weight %. For the same compound, the “Weight % n-Propanol, Overhead” value ([3]; rectification column, overhead) was 49.9 Weight %, the “liquid composition, n-propanol” value [2] was 77.2% and the “liquid composition, water” value [2] was 22.8%. The “vapor composition, n-propanol” value [2] was 60.5% and the “vapor composition, water” value [2] was 39.5%.
